Where a SMILES comes first, the peptide text is derived from it.
Experiments:
tyrosinase [1] = settings: RF machine learning model, 425 sequence features; cited from earlier work
Description: (§1) Table 1 Abalone predicted TIPs by KNN and RF-based predictors and the predicted antioxidant scores by AnOxPePred 1.0 program. | column: Predicted Anti-Tyrosinase Probability / RF Predictor || Previously, our research team proposed the in-house machine learning-based anti-tyrosinase prediction tool, which provides thousands of potential peptides. The probability scores of all 1079 peptides from KNN-based and RF-based models can be found in the supplementary file of the previous article by Kongsompong et al.. The KNN and RF predictors were trained and tested against 133 peptides with known anti-tyrosinase properties with 97% and 99% accuracy. The predictions of both models were based on the numeric matrix of 425 features calculated from amino acid composition (20 featur ...

tyrosinase [2] = settings: KNN machine learning model, 425 sequence features; cited from earlier work
Description: as §1, with “/ KNN” for “/ RF”

[3] = tested on: superoxide dismutase (SOD); experiment: Antioxidative enzyme activity, superoxide dismutase (assay kit); type: cell-based, murine; settings: 70 μM, UV-exposed B16F10 cells
Description: (§2) To determine the antioxidant activity, the centrifugation precipitate from Section 4.6 was dissolved in 1 mL of 1 M NaOH containing 10% DMSO at 80 °C for 1 h. Various assay kits, all from Beijing Solarbio Science & Technology Co., Ltd., Beijing, China, were used to measure the quantity of reduced reactive oxygen species (ROS) and the activity of superoxide dismutase (SOD), catalase (CAT), and glutathione peroxidase (GPx) according to the methods by Hu et al..

[4] = tested on: glutathione peroxidase (GPx); experiment: Antioxidative enzyme activity, glutathione peroxidase (assay kit); type: cell-based, murine; settings: 70 μM, UV-exposed B16F10 cells
Description: as §2

cellular tyrosinase = target: T1, cellular tyrosinase (Mus musculus, UniProt P11344); experiment: Intracellular (cellular) tyrosinase activity assay in UV-induced B16F10 cells; type: cell-based, murine; settings: 70 μM peptide, UVA/UVB-induced B16F10 cells, triplicate
T1 construct: the harvested cells were lysed in cell extraction buffer; endogenous in cells; host or cells: B16F10 murine melanoma cells, UVA/UVB-induced
T1 sequence (P11344 19-533): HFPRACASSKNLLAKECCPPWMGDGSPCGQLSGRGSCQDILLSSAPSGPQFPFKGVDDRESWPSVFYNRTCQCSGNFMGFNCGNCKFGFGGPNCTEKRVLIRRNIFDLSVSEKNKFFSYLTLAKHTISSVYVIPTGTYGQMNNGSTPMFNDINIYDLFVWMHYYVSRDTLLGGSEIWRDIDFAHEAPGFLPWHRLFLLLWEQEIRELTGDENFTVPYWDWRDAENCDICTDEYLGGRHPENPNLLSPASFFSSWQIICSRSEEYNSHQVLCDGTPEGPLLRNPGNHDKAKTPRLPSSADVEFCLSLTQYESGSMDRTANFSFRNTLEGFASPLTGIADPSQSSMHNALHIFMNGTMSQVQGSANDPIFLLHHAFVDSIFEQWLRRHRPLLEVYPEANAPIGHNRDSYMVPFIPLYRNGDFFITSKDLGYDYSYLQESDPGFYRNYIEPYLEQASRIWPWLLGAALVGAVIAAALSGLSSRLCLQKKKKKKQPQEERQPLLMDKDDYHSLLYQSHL
Description: Tyrosinase activity was measured based on Dopa oxidase activity by estimating the dopachrome production according to the method by Qiao et al., 2012 [54], with some modifications. B16F10 cells were seeded at 5 × 10^6 cells/mL in 24-well plates. […] Each well was then washed and replaced with PBS 600 μL and induced with UVA (314-400 nm, 3.0 W) and UVB (280-315 nm, 13.6 W) using OSRAM (Ultra-Vitalux, Germany) for 22 s (0.32 J/cm^2). After that, the cells were incubated with medium 600 μL/well for a further 24 h. Then, the cells were trypsinized and the harvested cells were lysed in cell extraction buffer. After normalized protein concentration, 10 μL of each lysate supernatant was aliquoted into a 96-well plate and shaking incubated in dark conditions with 1 mM L-DOPA 90 μL in PBS at 37 °C at 280 rpm for 10 min. The absorbance was measured at 475 nm and all experiments were performed in triplicate to determine the IC50 of the samples. The cellular tyrosinase inhibitory activity was calculated with the following equation: % Cellular tyrosinase inhibition=[(C)-(S)/(C)]×100, where, C are defined as in the previous section.

B16F10 melanoma cells = experiment: Melanin content assay in UV-induced B16F10 cells; type: cell-based, murine; settings: 70 μM peptide, UVA/UVB-induced B16F10 cells, triplicate
Description: Cellular melanin content was measured using a modified method by Jegal, et al.. B16F10 cells were seeded at 5 × 10^5 cells/mL in 24-well plates. […] After that, the cells in each well were washed and replaced by PBS. The UV stimulation process was performed by the exposure to UVA (314-400 nm, 3.0 W) and UVB (280-315 nm, 13.6 W) for 22 s. Then, PBS was replaced with media and further incubated for 24 h. The UV-stimulated cells were then trypsinized and centrifuged at 1500 rpm for 5 min. The cell pellet was then dissolved in 2 M NaOH at 60 °C for 1 h to solubilize the melanin. The melanin content was estimated by measuring the absorbance at 405 nm. The melanin content was calculated with the following equation: % Melanin content=(S)/(C)×100, where, S is the OD405 of sample and C represents the OD405 of control. All experiments were performed in triplicate.

mushroom tyrosinase = mushroom tyrosinase (Agaricus bisporus, UniProt C7FF04); experiment: Mushroom tyrosinase activity assay (L-DOPA oxidation, diphenolase); type: biochemical; settings: L-DOPA substrate, up to 500 μM
mushroom tyrosinase, sequence (C7FF04 1-392): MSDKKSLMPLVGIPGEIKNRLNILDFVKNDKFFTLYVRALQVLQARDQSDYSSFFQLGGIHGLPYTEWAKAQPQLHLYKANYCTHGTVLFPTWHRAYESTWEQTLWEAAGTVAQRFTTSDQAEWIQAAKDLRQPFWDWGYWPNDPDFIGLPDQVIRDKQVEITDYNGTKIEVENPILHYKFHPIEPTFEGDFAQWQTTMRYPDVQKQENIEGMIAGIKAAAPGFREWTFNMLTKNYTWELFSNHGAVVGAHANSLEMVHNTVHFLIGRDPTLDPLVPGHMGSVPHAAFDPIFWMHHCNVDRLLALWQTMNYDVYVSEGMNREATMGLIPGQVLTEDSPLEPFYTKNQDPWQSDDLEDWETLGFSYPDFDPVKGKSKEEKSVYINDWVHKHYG
mushroom tyrosinase, sequence (G1K3P4 1-150 partner): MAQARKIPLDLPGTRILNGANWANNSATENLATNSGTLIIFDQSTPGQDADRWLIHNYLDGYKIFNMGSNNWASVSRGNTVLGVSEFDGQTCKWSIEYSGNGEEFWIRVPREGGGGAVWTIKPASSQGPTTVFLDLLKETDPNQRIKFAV
Description: The inhibitory effect on mushroom tyrosinase was determined spectrophotometrically via L-DOPA oxidation. The reaction mixture consisted of 20 μL of hdTIPs, 140 μL of 100 mM sodium phosphate buffer (pH6.8) and 40 μL of 200 units/mL mushroom tyrosinase (EC 1.14.18.1; Sigma, Saint Louis, USA) placed in a 96-well microplate, then incubated for 10 min. After that, 20 μL of 5mM L-DOPA were mixed into each well over 20 min. Furthermore, the amount of dopachrome produced absorbance was measured at 475 nm. In addition, KA was used as the positive control at the same concentrations and conditions to hdTIPs. This method was modified from Kim et al..
The mushroom tyrosinase inhibitory activity was calculated with the following equation: % Mushroom tyrosinase inhibition=[(C)−(S)/(C)]×100, where, C represents the OD475 of control and S is the OD475 of sample. All experiments were performed in triplicate to determine the IC50 of the samples.

## CSCC[C@H](NC(=O)[C@H](CCC(N)=O)NC(=O)[C@H](CO)NC(=O)[C@@H](N)[C@@H](C)O)C(=O)N[C@@H](CO)C(=O)N[C@@H](CCCNC(=N)N)C(=O)N[C@@H](CO)C(=O)N[C@@H](CO)C(=O)N[C@@H](CO)C(=O)N[C@@H](CCCNC(=N)N)C(=O)O [KNN2] (H-TSQMSRSSSR-OH; N-terminus and C-terminus assumed)
Tyrosinase [1]
  Predicted Anti-Tyrosinase Probability RF Predictor: 0.37
Tyrosinase [2]
  Predicted Anti-Tyrosinase Probability KNN Predictor: 1.00
[3]
  effect on SOD activity: elevated
[4]
  effect on GPx activity: elevated
Cellular tyrosinase
  inhibition of cellular tyrosinase: fourth-most-effective inhibitor
B16F10 melanoma cells
  inhibition of melanin content: fourth-most-effective inhibitor
Mushroom tyrosinase
  inhibitory effect on mushroom tyrosinase (diphenolase activity): did not show any inhibition
